# Patent publication US5082771A, “Detecting cells using tellurapyrylium dihydroxides” (Eastman Kodak Company, priority 1989, dated 1992)
# Assays:
# [1] = Maximum absorption and extinction coefficient of the Te(IV) dihydroxides in water; format: physicochemical; conditions: for extinction coefficient (ε): at λmax
# Source text: The maximum absorption and extinction coefficient for the compounds in water is listed below: […]
# [2] = tested on: E. Coli; test: Reduction of Te/Te Dye by suspension of E. Coli cells, change in optical density as a function of time (Example 2); format: cell-based; conditions: 1 × 10^-4 M, pH about 7.8
# Source text: The final concentration of the TPDN was about 1×10^-4 molar after dilution.
# The stock solutions of the TPDH can be prepared in a concentration within the range of from about 5×10^-2 and about 5×10^-4 molar.
# [3] = tested on: E. Coli; test: Absorption spectra over time of a system comprising E. Coli and a tellurium (IV) dihydroxide (FIG. 1); format: cell-based; conditions: for absorption maximum: FIG. 1, system comprising E. Coli
# Source text: FIG. 1 comprises a series of plots showing the change, over time, of the absorption spectrum of a system comprising E. Coli. and a tellurium (IV) dihydroxide. More specifically, the series of plots follows the reduction: [drawing 1] as a function of time.
# Over time, as the E. Coli reduces the tellurium (IV) dihydroxide. i.e., the TPDH. the absorption at 510 nm diminishes until it becomes non existent. As the absorption diminishes at 510 nm, a much more intense absorption peak at about 820 nm arises. In other words, the extinction coefficient for the absorption maximum of the TPDH is mu:h less than the extinction coefficient for the absorption maximum for the reduction product. Stated another way, the extinction coefficient for the absorption peak of the reduction product is much greater than the extinction coefficient for the absorption peak of the TPDH.
# The time interval between each spectophometric tracing in FIG. 1 is about 30 seconds.
# [4] = Stability (half life) at 37° C. at various pH values; format: physicochemical
# Source text: The stability of the dihydroxycompounds used in this invention is generally very good.
compound,measurement,setting,value
CC(C)(C)C1=CC(=CC=Cc2cc(C(C)(C)C)[s+]c(C(C)(C)C)c2)C=C(C(C)(C)C)[Te]1(O)O [Te/S Dye],maximum absorption (λmax),[1],480 nm
same,extinction coefficient (ε),[1],"52,000"
CC(C)(C)C1=CC(=CC=Cc2cc(C(C)(C)C)[se+]c(C(C)(C)C)c2)C=C(C(C)(C)C)[Te]1(O)O [Te/Se Dye],maximum absorption (λmax),[1],502 nm
same,extinction coefficient (ε),[1],"55,000"
"CC(C)(C)C1=CC(=CC=Cc2cc(C(C)(C)C)[te+]c(C(C)(C)C)c2)C=C(C(C)(C)C)[Te]1(O)O [Te/Te Dye, 4[3[2,6-bis(1,1-dimethylethyl)-tellurinium-4-yl]-2-propenylidene]-1,1-dihydroxy-2,6-bis(1,1-dimethylethyl)-1,1-dihydro-4H-tellurin chloride]",Optical Density (O.D.) @ 820 nm,"[2]; 10^5 Cells/mL, 0.0 s",0.05
same,Optical Density (O.D.) @ 820 nm,"[2]; 10^5 Cells/mL, 60 s",0.15
same,Optical Density (O.D.) @ 820 nm,"[2]; 10^5 Cells/mL, 120 s",0.90
same,Optical Density (O.D.) @ 820 nm,"[2]; 10^5 Cells/mL, 180 s",0.65
same,Optical Density (O.D.) @ 820 nm,"[2]; 10^5 Cells/mL, 240 s",0.89
same,Optical Density (O.D.) @ 820 nm,"[2]; 10^5 Cells/mL, 300 s",0.98
same,Optical Density (O.D.) @ 820 nm,"[2]; 10^5 Cells/mL, 360 s",1.13
same,Optical Density (O.D.) @ 820 nm,"[2]; 10^5 Cells/mL, 420 s",1.18
same,Optical Density (O.D.) @ 820 nm,"[2]; 10^5 Cells/mL, 480 s",1.23
same,Optical Density (O.D.) @ 820 nm,"[2]; 10^5 Cells/mL, 540 s",1.24
same,Optical Density (O.D.) @ 820 nm,"[2]; 10^6 Cells/mL, 0.0 s",0.05
same,Optical Density (O.D.) @ 820 nm,"[2]; 10^6 Cells/mL, 30 s",0.10
same,Optical Density (O.D.) @ 820 nm,"[2]; 10^6 Cells/mL, 60 s",0.32
same,Optical Density (O.D.) @ 820 nm,"[2]; 10^6 Cells/mL, 120 s",0.63
same,Optical Density (O.D.) @ 820 nm,"[2]; 10^6 Cells/mL, 150 s",0.84
same,Optical Density (O.D.) @ 820 nm,"[2]; 10^6 Cells/mL, 210 s",1.15
same,Optical Density (O.D.) @ 820 nm,"[2]; 10^6 Cells/mL, 270 s",1.46
same,Optical Density (O.D.) @ 820 nm,"[2]; 10^6 Cells/mL, 300 s",1.60
same,Optical Density (O.D.) @ 820 nm,"[2]; 10^6 Cells/mL, 330 s",1.73
same,Optical Density (O.D.) @ 820 nm,"[2]; 10^6 Cells/mL, 390 s",2.00
same,maximum absorption (λmax),[1],510 nm
same,extinction coefficient (ε),[1],"56,000"
same,absorption at about 820 nm,"[3]; FIG. 1, before reduction",practically no absorption
same,absorption maximum,[3],about 510 nm
same,absorption at about 510 nm after reduction by E. Coli,"[3]; over time, tracings about every 30 seconds",non existent
"CC(C)(C)C1=CC(=CC=Cc2cc(C(C)(C)C)[te+]c(C(C)(C)C)c2)C=C(C(C)(C)C)[Te]1 [compound (b), 4-[3-[2,6-bis(1,1-dimethylethyl-4H-tellurin-4-ylidene]-1-propenyl]-2,6-bis(1,1-dimethylethyl) -tellurinium chloride]",absorption maximum,[3],about 820 nm
CC(C)(C)C1=CC(=CC=Cc2cc(C(C)(C)C)[te+]c(C(C)(C)C)c2)C=C(C(C)(C)C)[Te]1(O)O [drawing 16],half-life,[4]; pH 4.58,3.5 h
same,half-life,[4]; pH 5.98,4.5 h
same,half-life,"[4]; pH 7.4, pH 7.40",12 h
same,half-life,"[4]; pH 8.5, pH 8.50",12 h
same,half-life,[4]; pH 9.03,8.5 h
same,half-life,"[4]; pH 10.2, pH 10.20",8 h
same,half-life,[4]; pH 11.98,6.3 h
